Experimental data from PMC10743905, “Design, Synthesis, and In Vitro and In Vivo Bioactivity Studies of Hydrazide–Hydrazones of 2,4-Dihydroxybenzoic Acid” (International Journal of Molecular Sciences, 2023).
≈ marks a conversion by molar mass, not a printed value.

How the values were obtained:
[1] = test system: Proteus mirabilis ATCC 12453; test: Broth microdilution MIC/MBC; assay type: cell-based; conditions: ATCC12453
Excerpt: (§1) In vitro antimicrobial activity assays - Methodology
(§2) The examined compounds 1 - 24 were screened in vitro for antibacterial and antifungal activities using the broth microdilution method according to procedure reported earlier by our research group and European Committee on Antimicrobial Susceptibility Testing (EUCAST) and Clinical and Laboratory Standards Institute (CLSI) guidelines against a panel of reference and clinical or saprophytic strains of microorganisms, in-cluding Gram-positive bacteria, Staphylococcus aureus ATCC 43300 (Methicillin Resistant S. aureus – MRSA), Staphylococcus aureus ATCC 29213 (Methicillin Susceptible S. aureus – MSSA), Staphylococcus epidermidis ATCC 12228, Enterococcus faecalis ATCC 29212, Micro-coccus luteus ATCC 10240, Bacillus subtilis ATCC 6633 and Bacillus cereus ATCC 10876), Gram-negative bacteria (Bordetella bronchiseptica ATCC 4617, Escherichia coli ATCC 25922, Klebsiella pneumoniae ATCC 13883, Proteus mirabilis ATCC 12453, Salmonella typhimurium ATCC 14028 and Pseudomonas aeruginosa ATCC 9027) and fungi belonging to yeasts (Can-dida albicans ATCC 10231, Candida albicans ATCC 2091, Candida parapsilosis ATCC 22019, Candida glabrata ATCC 90030 and Candida krusei ATCC 14243). The microorganisms be-longing to ATCC came from American Type Culture Collection, routinely used for the evaluation of antimicrobials. […]
(§3) Samples containing examined compounds were dissolved in dimethyl sulfoxide (DMSO). […]
(§4) Subsequently, the MIC (Minimal Inhibitory Concentration) of the compounds was ex-amined by the microdilution broth method, using their two-fold dilutions in Mueller- […]
(§5) Hinton broth or (for bacteria) and RPMI 1640 broth with MOPS (for fungi) prepared in 96-well polystyrene plates. Final concentrations of the compounds ranged from 1000 to 0.488 µg/ml. Microbial suspensions were prepared in 0.85% NaCl with an optical density of 0.5 McFarland standard. Next each bacterial or fungal suspension was added per each well containing broth and various concentrations of the examined compounds. After incuba-

[2] = test system: Staphylococcus aureus ATCC 43300; test: Broth microdilution MIC/MBC; assay type: cell-based; conditions: Staphylococcus aureus ATCC 43300 (MRSA)
Excerpt: as §1, §2, §3, §4, §5

[3] = test system: Micrococcus luteus ATCC 10240; test: Broth microdilution MIC/MBC; assay type: cell-based; conditions: for MBC: ATCC10240; for MIC: ATCC10240, read-out: MIC
Excerpt: as §1, §2, §3, §4, §5

[4] = test system: Pseudomonas aeruginosa ATCC 9027; test: Broth microdilution MIC/MBC; assay type: cell-based; conditions: ATCC9027
Excerpt: as §1, §2, §3, §4, §5

[5] = test system: Staphylococcus epidermidis ATCC 12228; test: Broth microdilution MIC/MBC; assay type: cell-based; conditions: ATCC12228, read-out: MIC
Excerpt: as §1, §2, §3, §4, §5

[6] = test system: Salmonella typhimurium ATCC 14028; test: Broth microdilution MIC/MBC; assay type: cell-based; conditions: Salmonella enterica
Excerpt: as §1, §2, §3, §4, §5

[7] = test system: Staphylococcus aureus ATCC 29213; test: Broth microdilution MIC/MBC; assay type: cell-based
Excerpt: as §1, §2, §3, §4, §5

[8] = test system: Candida albicans ATCC 10231; test: Broth microdilution MIC/MFC; assay type: cell-based; conditions: for MIC: ATCC10231, read-out: MIC
Excerpt: as §1
as §2, with “antimicrobials. All the used microbial cultures were first subcultured on nu-trient agar or Sabouraud agar at 35°C for 18-24 h or 30°C for 24-48 h for bacteria and fungi,” for “antimicrobials.”
(§6) The surface of Mueller-Hinton agar (for bacteria) and RPMI 1640 with MOPS (for fungi) were inoculated with the suspensions of bacterial or fungal species. Microbial suspensions were prepared in sterile saline with an optical density of McFarland standard scale 0.5.
(§7) Samples containing examined compounds were dissolved in dimethyl sulfoxide (DMSO).
(§8) Furthermore, bacterial and fungal suspensions were put onto Petri dishes with solid me-dia containing 2 mg/mL of the tested compounds followed incubation at 37°C for 24h and 30°C for 48h for bacteria and fungi, respectively. The inhibition of microbial growth was judged by comparison with a control culture prepared without any sample tested. Ciprof-loxacin, vancomycin, nitrofurantoin, cefuroxime, ampicillin or nystatin (Sigma) were used as a reference antibacterial or antifungal compounds, respectively.
as §4, §5

[9] = test system: Candida krusei ATCC 14243; test: Broth microdilution MIC/MFC; assay type: cell-based; conditions: Pichia kudriavzevii, ATCC14243, read-out: MIC
Excerpt: as §1
as §2, with “antimicrobials. All the used microbial cultures were first subcultured on nu-trient agar or Sabouraud agar at 35°C for 18-24 h or 30°C for 24-48 h for bacteria and fungi,” for “antimicrobials.”
as §6, §7, §8, §4, §5

[10] = test system: Candida parapsilosis ATCC 22019; test: Broth microdilution MIC/MFC; assay type: cell-based; conditions: Lodderomyces parapsilosis, ATCC22019, read-out: MIC
Excerpt: as §1
as §2, with “antimicrobials. All the used microbial cultures were first subcultured on nu-trient agar or Sabouraud agar at 35°C for 18-24 h or 30°C for 24-48 h for bacteria and fungi,” for “antimicrobials.”
as §6, §7, §8, §4, §5

[11] = test system: Candida albicans ATCC 2091; test: Broth microdilution MIC/MFC; assay type: cell-based; conditions: for MIC: ATCC2091, read-out: MIC
Excerpt: as §1
as §2, with “antimicrobials. All the used microbial cultures were first subcultured on nu-trient agar or Sabouraud agar at 35°C for 18-24 h or 30°C for 24-48 h for bacteria and fungi,” for “antimicrobials.”
as §6, §7, §8, §4, §5

[12] = test system: Candida glabrata ATCC 90030; test: Broth microdilution MIC/MFC; assay type: cell-based; conditions: Nakaseomyces glabratus, ATCC90030, read-out: MIC
Excerpt: as §1
as §2, with “antimicrobials. All the used microbial cultures were first subcultured on nu-trient agar or Sabouraud agar at 35°C for 18-24 h or 30°C for 24-48 h for bacteria and fungi,” for “antimicrobials.”
as §6, §7, §8, §4, §5

[13] = test system: Bacillus subtilis ATCC 6633; test: Broth microdilution MIC/MBC; assay type: cell-based; conditions: for MIC: ATCC6633, read-out: MIC
Excerpt: Detailed procedures are presented in the Supplementary Materials. […]
as §1
as §2, with “antimicrobials. All the used microbial cultures were first subcultured on nu-trient agar or Sabouraud agar at 35°C for 18-24 h or 30°C for 24-48 h for bacteria and fungi,” for “antimicrobials.”
as §6, §7, §8, §4, §5

[14] = test system: Bordetella bronchiseptica ATCC 4617; test: Broth microdilution MIC/MBC; assay type: cell-based; conditions: ATCC4617
Excerpt: as §1
as §2, with “antimicrobials. All the used microbial cultures were first subcultured on nu-trient agar or Sabouraud agar at 35°C for 18-24 h or 30°C for 24-48 h for bacteria and fungi,” for “antimicrobials.”
as §6, §7, §8, §4, §5

[15] = test system: Bacillus cereus ATCC 10876; test: Broth microdilution MIC/MBC; assay type: cell-based; conditions: for MIC: ATCC10876, read-out: MIC
Excerpt: as §1
as §2, with “antimicrobials. All the used microbial cultures were first subcultured on nu-trient agar or Sabouraud agar at 35°C for 18-24 h or 30°C for 24-48 h for bacteria and fungi,” for “antimicrobials.”
as §6, §7, §8, §4, §5

[16] = test system: Klebsiella pneumoniae ATCC 13883; test: Broth microdilution MIC/MBC; assay type: cell-based; conditions: ATCC13883
Excerpt: as §1
as §2, with “antimicrobials. All the used microbial cultures were first subcultured on nu-trient agar or Sabouraud agar at 35°C for 18-24 h or 30°C for 24-48 h for bacteria and fungi,” for “antimicrobials.”
as §6, §7, §8, §4, §5

[17] = test system: Escherichia coli ATCC 25922; test: Broth microdilution MIC/MBC; assay type: cell-based; conditions: ATCC25922
Excerpt: as §1
as §2, with “antimicrobials. All the used microbial cultures were first subcultured on nu-trient agar or Sabouraud agar at 35°C for 18-24 h or 30°C for 24-48 h for bacteria and fungi,” for “antimicrobials.”
as §6, §7, §8, §4, §5

[18] = test system: Enterococcus faecalis ATCC 29212; test: Broth microdilution MIC/MBC; assay type: cell-based; conditions: for MIC: ATCC29212, read-out: MIC
Excerpt: as §1
as §2, with “antimicrobials. All the used microbial cultures were first subcultured on nu-trient agar or Sabouraud agar at 35°C for 18-24 h or 30°C for 24-48 h for bacteria and fungi,” for “antimicrobials.”
as §6, §7, §8, §4, §5

| SMILES | MIC [1] [µg/mL] | MIC [2] [µg/mL] | MBC/MIC [3] | MBC [3] [µg/mL] | MIC [3] [µg/mL] | MIC [4] [µg/mL] | MIC [5] [µg/mL] | MIC [6] [µg/mL] | MIC ([7]; ATCC29213) [µg/mL] | MIC [8] [µg/mL] | MIC [9] [µg/mL] | MIC [10] [µg/mL] | MIC [11] [µg/mL] | MIC [12] [µg/mL] | melting point [°C] | MIC [13] [µg/mL] | MIC [14] [µg/mL] | MIC [15] [µg/mL] | MIC [16] [µg/mL] | MIC [17] [µg/mL] | other results |
| --- | --- | --- | --- | --- | --- | --- | --- | --- | --- | --- | --- | --- | --- | --- | --- | --- | --- | --- | --- | --- | --- |
| Cc1ccc(/C=N/NC(=O)c2ccc(O)cc2O)cc1 [Compound 3, 2,4-dihydroxy-N-[(4-methylphenyl)methylidene]benzohydrazide] | > 1000 | > 1000 | > 2 | > 1000 | 500 (≈ 1.85 mM) | > 1000 | > 1000 | > 1000 | > 1000 | > 1000 | > 1000 | > 1000 | > 1000 | > 1000 | 248 | > 1000 | > 1000 | > 1000 | > 1000 | > 1000 | MIC [18]: > 1000 µg/mL |
| CCOc1ccc(/C=N/NC(=O)c2ccc(O)cc2O)cc1 [Compound 5, N-[(4-ethoxyphenyl)methylidene]-2,4-dihydroxybenzohydrazide] | > 1000 | > 1000 | > 2 | > 1000 | 500 (≈ 1.66 mM) | > 1000 | > 1000 | > 1000 | 1000 (≈ 3.33 mM) | 1000 (≈ 3.33 mM) | > 1000 | > 1000 | 500 (≈ 1.66 mM) | > 1000 | 248 | 500 (≈ 1.66 mM) | > 1000 | 500 (≈ 1.66 mM) | > 1000 | > 1000 | MBC/MIC [7]: > 1; MBC ([7]; ATCC29213): > 1000 µg/mL; MFC/MIC [8]: > 1; MFC ([8]; ATCC10231, read-out: MFC): > 1000 µg/mL; MFC/MIC [11]: > 2; MFC ([11]; ATCC2091, read-out: MFC): > 1000 µg/mL; MBC/MIC [13]: > 2; MBC ([13]; ATCC6633): > 1000 µg/mL; MBC/MIC [15]: > 2; MBC ([15]; ATCC10876): > 1000 µg/mL; MBC/MIC [18]: > 1; MBC ([18]; ATCC29212, read-out: MBC): > 1000 µg/mL; MIC [18]: 1000 µg/mL (≈ 3.33 mM) |
